Measurements: patent publication US8389679B2, “Targeted antimicrobial moieties” (priority 2009, dated 2013)
Entries after “also recorded” stand apart in the source; their conditions may differ. Read-outs that look alike come from different tables or passages of the source. Where a SMILES comes first, the peptide text is derived from it. Where no end group is shown, it is not given here.

How the values were obtained:
[1] = tested on: target microorganisms; experiment: Screen of synthesized peptides for binding to target microorganisms (targeting peptides, Tables 2 and 3); conditions: microorganism(s) the targeting peptide was identified as binding to (Table 3)
Method: Once noted, these peptides were batch synthesized on a multiplex peptide synthesizer, yielding 5-10 mg of each peptide that could readily be screened for biological activity (e.g., binding activity and/or antimicrobial activity.
Other suitable targeting peptides include the peptides that have been identified as binding to particular target organisms as shown in Table 3 and/or Table 4.

[2] = tested on: S. mutans
[3] = tested on: S. mutans; experiment: Microbial population shift assay (mixed planktonic culture); type: cell-based, Streptococcus mutans; conditions: 10 μM peptide, 24 h, FIG. 16
Method: (§1) FIG. 16 illustrates the selective activity of dual-targeted and single-targeted MH-STAMPs in mixed culture. […] After incubation, cfu/mL of remaining constituent species were quantitated after plating to selective media. * indicates under 200 surviving cfu/mL recovered.
(§2) Peptide (10 μM) or mock-treatment (1×PBS) was then added and samples were incubated at 37° C. for 24 h under anaerobic conditions (80% N2, 15% CO2, 5% H2). […] Plates were then incubated 37° C. under aerobic conditions (TH plates were incubated anaerobically) and colonies counted after 24 h to determine survivors. […] Gram stains and direct microscopic observation (from select isolated colonies) were undertaken to confirm species identity (data not shown). The detection limit of the assay was 200 cfu/mL.

[4] = tested on: P. aeruginosa; experiment: as above; type: cell-based, Pseudomonas aeruginosa; conditions: 10 μM peptide, 24 h, FIG. 16
Method: as §1, §2

[5] = tested on: E. coli; experiment: as above; type: cell-based, Escherichia coli; conditions: 10 μM peptide, 24 h, FIG. 16
Method: as §1, §2

[6] = tested on: S. epidermidis; experiment: as above; type: cell-based, Staphylococcus epidermidis; conditions: 10 μM peptide, 24 h, FIG. 16
Method: as §1, §2

[7] = tested on: S. mutans; experiment: Post-antibiotic effect assay (growth retardation in monoculture); conditions: peptide for 10 min, then fresh medium, FIG. 15A
Method: (§3) Agent was then removed and fresh media returned. Culture recovery was measured over time (OD600). Plots represent the average of at least 3 independent experiments with standard deviations.
(§4) The activity and selectivity of MH-STAMPs after a 10 min incubation was determined by growth retardation experiments against targeted and untargeted bacteria in monocultures, as described previously [10, 11]. Cells from overnight cultures were diluted to ˜5×10^6 cfu/mL in MH (or TH with 1% sucrose for S. mutans), normalized by OD600 0.05-0.1 and seeded to 96-well plates. Cultures were then grown under the appropriate conditions for 2 h (3 h for S. mutans) prior to the addition of peptides for 10 min. Plates were then centrifuged at 3000×g for 5 min, the supernatants discarded, fresh medium returned (MH or TH without sucrose for S. mutans), and incubation resumed. Bacterial growth after treatment was then monitored over time by OD600.

[8] = tested on: bacteria; experiment: Bacterial binding of blank peptide (data not shown)
[9] = tested on: S. mutans; experiment: Growth phenotype or other activity induced by peptide (Table 9); type: cell-based
[10] = tested on: S. mutans biofilms; experiment: Binding of targeting peptides by fluorescent microscopy; design: species or system Streptococcus mutans; conditions: 25 μM peptide, 5 min; data not shown
Method: Binding of Targeting Peptides. The binding of peptides 1—2, 1—3, 1—4, 1—6, 2—1, and 3—1 was assessed by fluorescent microscopy. S. mutans UA159 was grown overnight and diluted 1:5000 in fresh TH with 1% sucrose before seeding to 96-well plates (flat bottom). Biofilms were grown 24 h and the spent medium replaced with 1×PBS containing 25 μM peptide. After 5 min incubation at room temperature, the supernatants were removed and the biofilms washed 2× with 1×PBS and imaged by bright-field and fluorescence microscopy (Nikon E400). Digital images were collected and analyzed for semiquantitative binding assessments with the manufacturers supplied software (SPOT, Diagnostics) (6).

[11] = tested on: E. coli; experiment: Post-antibiotic effect assay (growth retardation in monoculture); type: cell-based, Escherichia coli; conditions: peptide for 10 min, then fresh medium, FIG. 15E
[12] = tested on: S. aureus; experiment: as above; type: cell-based, Staphylococcus aureus; conditions: peptide for 10 min, then fresh medium, FIG. 15D
[13] = tested on: P. aeruginosa; experiment: as above; conditions: peptide for 10 min, then fresh medium, FIG. 15B
Method: as §3, §4

[14] = tested on: S. epidermidis; experiment: as above; conditions: peptide for 10 min, then fresh medium, FIG. 15C
Method: as §3, §4

[15] = Library 2 STAMPs, all S. mutans isolates tested, minimum of three independent trials

1T-169 (FARVRRLHQNRILTQPLTNLKYCLRQPIYSD; synthetic novel tartgeting peptide IT-169)
Target(s) [1]: A. naeslundii, F. nucleatum,; also recorded: P. gingivalis; also recorded: S. epidermidis,; also recorded: S. gordonii, S. mitis, S. mutans,; also recorded: S. oralis, S. salivarious,; also recorded: S. sanguinis

1T-170 (AYGKVFSMDIMLSENDKLIVLRISHHSAWH; synthetic novel tartgeting peptide IT-170)
Target(s) [1]: P. gingivalis

CC[C@H](C)[C@H](NC(=O)[C@H](Cc1ccccc1)NC(=O)CCCCCCCNC(=O)[C@H](Cc1ccccc1)NC(=O)[C@H](Cc1c[nH]cn1)NC(=O)[C@H](CC(C)C)NC(=O)[C@H](Cc1c[nH]cn1)NC(=O)[C@H](Cc1ccccc1)NC(=O)[C@H](Cc1c[nH]cn1)NC(=O)[C@@H](N)Cc1ccccc1)C(=O)N[C@@H](CCCCN)C(=O)N[C@@H](Cc1c[nH]cn1)C(=O)N[C@@H](Cc1ccccc1)C(=O)N[C@H](C(=O)N[C@@H](Cc1c[nH]cn1)C(=O)N[C@@H](CCCNC(=N)N)C(=O)N[C@@H](Cc1ccccc1)C(N)=O)[C@@H](C)CC [135(LC)2_1, FHFHLHF-[NH(CH2)7CO]-FIKHFIHRF] (HELM PEPTIDE1{F.H.F.H.L.H.F.[O=C(CCCCCCCN[*:1])[*:2]].F.I.K.H.F.I.H.R.F.[am]}$$$$V2.0; N-terminus assumed)
S. mutans (MIC) [2]: 64 µg/mL

CC[C@H](C)[C@H](NC(=O)[C@H](Cc1ccccc1)NC(=O)CCCCCCCNC(=O)[C@H](CCCCNC(=O)CNC(=O)CNC(=O)CNC(=O)[C@H](Cc1c[nH]cn1)NC(=O)[C@H](CCCCN)NC(=O)[C@H](CCCNC(=N)N)NC(=O)[C@H](Cc1c[nH]cn1)NC(=O)[C@H](CCCCN)NC(=O)[C@H](CCCNC(=N)N)NC(=O)[C@H](Cc1c[nH]cn1)NC(=O)[C@H](CCCCN)NC(=O)[C@H](CCCNC(=N)N)NC(=O)[C@H](Cc1c[nH]cn1)NC(=O)[C@H](CCCCN)NC(=O)[C@@H](N)CCCCN)NC(=O)CNC(=O)CNC(=O)CNC(=O)[C@H](C)NC(=O)[C@H](CCC(=O)O)NC(=O)[C@H](CC(N)=O)NC(=O)[C@H](C)NC(=O)[C@H](C)NC(=O)[C@H](CC(=O)O)NC(C)=O)C(=O)N[C@@H](CCCNC(=N)N)C(=O)N[C@@H](CCCCN)C(=O)N[C@@H](Cc1ccccc1)C(=O)N[C@@H](CC(C)C)C(=O)N[C@@H](CCCCN)C(=O)N[C@@H](CCCCN)C(=O)N[C@@H](Cc1c[nH]c2ccccc12)C(=O)N[C@@H](CC(C)C)C(=O)N[C@@H](CC(C)C)C(N)=O [BL(KH)-20] (HELM PEPTIDE1{[ac].D.A.A.N.E.A.G.G.G.K.[O=C(CCCCCCCN[*:1])[*:2]].F.I.R.K.F.L.K.K.W.L.L.[am]}|PEPTIDE2{K.K.H.R.K.H.R.K.H.R.K.H.G.G.G}$PEPTIDE1,PEPTIDE2,11:R3-15:R2$$$V2.0)
recoverable S. mutans cfu/mL in mixed culture (in words) [3]: higher than input cfu/mL | recoverable P. aeruginosa cfu/mL in mixed culture (in words) [4]: not observed | recoverable E. coli cfu/mL in mixed culture (in words) [5]: unchanged numbers | recoverable S. epidermidis cfu/mL in mixed culture (in words) [6]: unchanged numbers | S. mutans growth after treatment (culture recovery, OD600) [7]: not altered

CC[C@H](C)[C@H](NC(=O)[C@H](Cc1ccccc1)NC(=O)CNC(=O)CNC(=O)CNC(=O)[C@H](Cc1ccccc1)NC(=O)[C@H](Cc1c[nH]cn1)NC(=O)[C@H](CC(C)C)NC(=O)[C@H](Cc1c[nH]cn1)NC(=O)[C@H](Cc1ccccc1)NC(=O)[C@H](Cc1c[nH]cn1)NC(=O)[C@H](Cc1ccccc1)NC(=O)c1ccccc1)C(=O)N[C@@H](CCCCN)C(=O)N[C@@H](Cc1c[nH]cn1)C(=O)N[C@@H](Cc1ccccc1)C(=O)N[C@H](C(=O)N[C@@H](Cc1c[nH]cn1)C(=O)N[C@@H](CCCNC(=N)N)C(=O)N[C@@H](Cc1ccccc1)C(N)=O)[C@@H](C)CC [bz135(L1)2_1, benzoate-FHFHLHFGGGFIKHFIHRF] (HELM PEPTIDE1{[O=C(c1ccccc1)[*:2]].F.H.F.H.L.H.F.G.G.G.F.I.K.H.F.I.H.R.F.[am]}$$$$V2.0)
S. mutans (MIC) [2, 15]: 32 µg/mL

Ac-FHFHLHFGGGFIKHFIHRF-NH2 [Ac135(L1)2_1, Ac-FHFHLHFGGGFIKHFIHRF]
S. mutans (MIC) [2]: 32 µg/mL

DAANEA-GGG (DAANEAGGG; synthetic BL-1 peptide with no bacterial binding)
bacterial binding [8]: no bacterial binding

EIPIQLANDLANYYDISLDSIFFW [G-4]
Organism, effect (S. mutans) [9]: Biofilm structure

FHFHLHF (not fully specified (C-terminus)) [PL-135]
activity against S. mutans relative to progeny STAMPs ([2]; FIG. 17 and Table 16): 2 to 4 fold

FHFHLHFAAAFIKHFIHRF-NH2 [135(L2)2_1, FHFHLHFAAAFIKHFIHRF]
S. mutans (MIC) [2]: 16 µg/mL

FHFHLHFAGAFIKHFIHRF-NH2 [135(L13)2_1, FHFHLHFAGAFIKHFIHRF]
S. mutans (MIC) [2]: 32 µg/mL

FHFHLHFGAGAGFIKHFIHRF-NH2 [135(L14)2_1]
S. mutans (MIC) [2]: 32 µg/mL

FHFHLHFGGGFIKHFIHRF-NH2 [135(L1)2_1, FHFHLHFGGGFIKHFIHRF]
S. mutans (MIC) [2]: 16 µg/mL | concentration active against S. mutans (MIC) [2]: lower than 100 μg/mL

FHFHLHFGGGGFIKHFIHRF-NH2 [135(G4)2_1]
S. mutans (MIC) [2]: 16 µg/mL

FHFHLHFGGGGGFIKHFIHRF-NH2 [135(G5)2_1]
S. mutans (MIC) [2]: 16 µg/mL

FHFHLHFGGGGGGFIKHFIHRF-NH2 [135(G6)2_1]
S. mutans (MIC) [2]: 32 µg/mL

FHFHLHFGGGGGGGFIKHFIHRF-NH2 [135(G7)2_1]
S. mutans (MIC) [2]: 32 µg/mL

FHFHLHFGSGSGFIKHFIHRF-NH2 [135(L12)2_1]
S. mutans (MIC) [2, 15]: 32 µg/mL

FHFHLHFSGSFIKHFIHRF-NH2 [135(L11)2_1, FHFHLHFSGSFIKHFIHRF]
S. mutans (MIC) [2, 15]: 32 µg/mL

FHLHFHFGGGFRHIFHKIF-NH2 [135i(L1)2_1i, FHLHFHFGGGFRHIFHKIF]
S. mutans (MIC) [2]: 16 µg/mL

FIKHFIHRF [2_1]
binding to S. mutans biofilms [10]: retain biofilm binding

FIRKFLKKWLL-NH2 [BD2.20, FIRKFLKKWLL]
E. coli growth after treatment (culture recovery, OD600) [11]: inhibited | S. aureus growth after treatment (culture recovery, OD600) [12]: inhibited | recoverable S. mutans cfu/mL in mixed culture (in words) [3]: significant loss of recoverable cfu/mL | recoverable P. aeruginosa cfu/mL in mixed culture (in words) [4]: significant loss of recoverable cfu/mL | recoverable E. coli cfu/mL in mixed culture (in words) [5]: significant loss of recoverable cfu/mL | recoverable S. epidermidis cfu/mL in mixed culture (in words) [6]: significant loss of recoverable cfu/mL | S. mutans growth after treatment (culture recovery, OD600) [7]: robust antimicrobial activity | P. aeruginosa growth after treatment (culture recovery, OD600) [13]: robust antimicrobial activity | S. epidermidis growth after treatment (culture recovery, OD600) [14]: inhibited

FRHIFHKIFGGGFHLHFHF-NH2 [2_1i(L1)135i, FRHIFHKIFGGGFHLHFHF]
S. mutans (MIC) [2]: 16 µg/mL

LIKHILHRL [3_1]
binding to S. mutans biofilms [10]: retain biofilm binding

WWHSWWSTW [1_2]
binding to S. mutans biofilms [10]: retain biofilm binding

WWKDWWERW [1_4]
binding to S. mutans biofilms [10]: retain biofilm binding

WWQDWWNEW [1_6]
binding to S. mutans biofilms [10]: retain biofilm binding

WWSYWWTQW [1_3]
binding to S. mutans biofilms [10]: retain biofilm binding
